Reference: article PMC9649518, “Knockout of ABC transporters by CRISPR/Cas9 contributes to reliable and accurate transporter substrate identification for drug discovery” (Frontiers in Pharmacology, 2022)

Legend:
MDCKⅡ-MDR1 = tested on: MDCKⅡ-MDR1; set-up: method as in Agarwal et al., 2007; settings: MDCKⅡ-MDR1 treated with P-gp inhibitors; ref Agarwal et al., 2007; cited from earlier work
MRP2 [1] = tested on: MRP2; set-up: method as in Bierman et al., 2010; Holmstock et al., 2018; settings: 5 μM and 10 µM; ref Bierman et al., 2010; Holmstock et al., 2018; cited from earlier work
[2] = Bidirectional transport assay across Caco-2 WT monolayers; settings: human, Caco-2, pH 7.4
Experimental: (§1) Then, HBSS was aspirated from both sides.
(§2) For MRP2, the nonfluorescent compound CDCFDA was used as the probe substrate. […] After treatment, samples were transferred to black-walled 96-well assay plates. A standard curve of 2-fold serial dilution from 10 µM CDCF was generated. The CDCF concentration was measured based on the fluorescence in a microplate fluorescence reader (Tecan, Switzerland) set at 485 nm and 530 nm for the excitation and emission wavelengths, respectively.

[3] = Bidirectional transport assay across P-gp KO Caco-2 monolayers; settings: human, pH 7.4
[4] = Bidirectional transport assay across BCRP KO Caco-2 monolayers; settings: human, pH 7.4
Experimental: as §1, §2

[5] = Bidirectional transport assay across MRP2 KO Caco-2 monolayers; settings: human
Experimental: as §1, §2

[6] = Bidirectional transport assay across P-gp/BCRP double KO Caco-2 monolayers; settings: human, pH 7.4
Experimental: (§3) The medium was replaced every second day.
as §1, §2

[7] = Bidirectional transport assay across P-gp/MRP2 double KO Caco-2 monolayers; settings: human, pH 7.4
Experimental: as §3, §1, §2

[8] = Bidirectional transport assay across MRP2/BCRP double KO Caco-2 monolayers; settings: human
Experimental: as §1, §2

MRP2 [9] = tested on: MRP2; set-up: method as in Koenig et al., 2010; Swedrowska et al., 2017; settings: 50 µM; Caco-2 cells; ref Koenig et al., 2010; Swedrowska et al., 2017; cited from earlier work

Papp A→B at 1 h, 5 μM [2] | Papp B→A at 1 h, 5 μM [2] | Papp A→B at 1 h, 5 μM [3] | Papp B→A at 1 h, 5 μM [3] | Papp A→B at 1 h, 5 μM [4] | Papp B→A at 1 h, 5 μM [4] | Papp B→A at 1 h, 5 μM ([5]; pH 7.4) | Papp A→B at 1 h, 5 μM ([5]; pH 7.4, Papp A-to-B, Caco^MRP2−/−, 5 μM substrate, 1 h, 37°C, HBSS pH 7.4, n = 3) | Papp A→B at 1 h, 5 μM [6] | Papp B→A at 1 h, 5 μM [6] | Papp A→B at 1 h, 5 μM [7] | Papp B→A at 1 h, 5 μM [7] | Papp B→A at 1 h, 5 μM ([8]; pH 7.4) | Papp A→B at 1 h, 5 μM ([8]; pH 7.4, Papp A-to-B, Caco^MRP2−/−BCRP−/−, 5 μM substrate, 1 h, 37°C, HBSS pH 7.4, n = 3) | Structure (SMILES) | Increase of Papp (A-B) (MDCKⅡ-MDR1) | Transport activity of MRP2 (MRP2 [1]) | Effect on darunavir efflux transport (MRP2 [9])
3.25 ± 0.59 ×10⁻⁶ cm/s | 24.5 ± 2.04 ×10⁻⁶ cm/s | 10.2 ± 0.27 ×10⁻⁶ cm/s | 6.59 ± 0.62 ×10⁻⁶ cm/s | 5.79 ± 0.64 ×10⁻⁶ cm/s | 18.4 ± 0.98 ×10⁻⁶ cm/s | 20.1 ± 2.26 ×10⁻⁶ cm/s | ~1 ×10⁻⁶ cm/s | 15.2 ± 1.44 ×10⁻⁶ cm/s | 10.3 ± 0.82 ×10⁻⁶ cm/s | 13.8 ± 1.01 ×10⁻⁶ cm/s | 11.5 ± 0.96 ×10⁻⁶ cm/s | 19 ± 3.05 ×10⁻⁶ cm/s | ~1 ×10⁻⁶ cm/s | Cc1cccc(C)c1OCC(=O)N[C@@H](Cc1ccccc1)[C@@H](O)C[C@H](Cc1ccccc1)NC(=O)[C@H](C(C)C)N1CCCNC1=O [Lopinavir, lopinavir] | up to 6 folds | inhibited | 
 |  |  |  |  |  |  |  |  |  |  |  |  |  | O=C1OC(c2ccc(O)c(S(=O)(=O)O)c2)(c2ccc(O)c(S(=O)(=O)O)c2)c2c(Br)c(Br)c(Br)c(Br)c21 [bromsulphthalein] |  |  | significant suppression
